Tests used:
CysLT1 receptor = biological target: T1, CysLT1 receptor (Homo sapiens, UniProt Q9Y271); test: CysLT1 calcium mobilisation assay in CHO cells; assay type: cell-based; conditions: 0.1 nM LTD4, CHO cells expressing CysLT1, read-out: inhibition of calcium mobilisation (CysLT1 antagonism)
T1 construct: host or cells: CHO cells
T1 sequence (Q9Y271 1-337): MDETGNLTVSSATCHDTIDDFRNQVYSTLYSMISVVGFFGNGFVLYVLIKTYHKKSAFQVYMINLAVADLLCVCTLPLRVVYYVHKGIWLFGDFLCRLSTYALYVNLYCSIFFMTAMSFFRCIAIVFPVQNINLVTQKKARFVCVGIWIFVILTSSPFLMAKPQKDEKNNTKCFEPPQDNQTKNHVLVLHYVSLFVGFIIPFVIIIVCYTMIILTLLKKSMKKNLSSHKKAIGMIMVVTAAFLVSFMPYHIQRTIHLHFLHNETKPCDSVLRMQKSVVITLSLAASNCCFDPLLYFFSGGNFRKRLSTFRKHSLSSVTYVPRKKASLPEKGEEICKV
Method: (§1) FIG. 15 tables the percentage inhibition by compounds 11B_CC11_HCl and 11B_CC16_HCl on the cysteinyl leukotriene pathway in in vitro and ex vivo assays. […] For in vitro cysteinyl leukotriene cell-based assays 11B_CC11_HCl and 11B_CC16_HCl, were tested at 30 μM concentration in duplicate, in a single experiment for their ability to inhibit the calcium mobilisation response of the CysLT1 receptor to 0.1 nM leukotriene D4 in CHO cells over-expressing the CysLT1 receptor or the calcium mobilisation response of the CysLT2 receptor to 30 nM of leukotriene C4 in HEK 293 cells over expressing the CysLT2 receptor.
(§2) Target profiling using Cerep and Eurofins/Panlabs profiling screens was undertaken using 11B_CC11_HCl and 11B_CC16_HCl in order to investigate the mechanism of action. […] Test substance (30 LM)-induced isometrically recorded contraction by 50 percent or more within 5 min, relative to control 3 nM leukotriene D4 response, indicates possible cysteinyl-leukotriene LT1 receptor agonist activity. […] To measure inhibition of cysteinyl leukotriene 1 (CysLT1 [LTD4]) and cysteinyl leukotriene 2 (CysLT2 [LTC4]) receptor activity, calcium mobilisation was measured using Fluor-3-loaded CHO cells (for cysLT1 assays) or HEK-293 cells (for CysLT2 assays) which stably express either the CysLT1 or CysLT2 receptors. […]

CysLT2 receptor = biological target: T2, CysLT2 receptor (Homo sapiens, UniProt Q9NS75); test: CysLT2 calcium mobilisation assay in HEK 293 cells; assay type: cell-based; conditions: HEK293, 30 nM LTC4, HEK-293 cells expressing CysLT2, read-out: inhibition of calcium mobilisation (CysLT2 antagonism)
T2 construct: host or cells: HEK 293 cells
T2 sequence (Q9NS75 1-346): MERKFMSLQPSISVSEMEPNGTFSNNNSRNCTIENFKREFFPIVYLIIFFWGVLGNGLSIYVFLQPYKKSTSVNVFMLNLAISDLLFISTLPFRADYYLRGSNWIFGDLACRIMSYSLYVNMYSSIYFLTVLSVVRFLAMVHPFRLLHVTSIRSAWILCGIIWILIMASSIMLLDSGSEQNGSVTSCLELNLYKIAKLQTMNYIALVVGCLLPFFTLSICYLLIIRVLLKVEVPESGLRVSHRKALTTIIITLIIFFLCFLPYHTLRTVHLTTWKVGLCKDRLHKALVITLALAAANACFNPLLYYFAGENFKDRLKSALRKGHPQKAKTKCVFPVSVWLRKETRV
Method: as §1, §2

retinal blood vessels = test: Ocular neovascularisation in mouse oxygen-induced retinopathy model; assay type: in vivo, C57BL/6J mice; conditions: 5 μM injected intravitreally on P13, culled P17; compared to P17 control
Method: Postnatal day (P) 7 C57BL/6J mice together with their dams were treated in 75% oxygen (hyperoxia) for 5 days causing regression of retinal blood vessels. They were returned to normoxia (relative hypoxia) on P12, causing rapid regrowth of the retinal blood vessels, 5 μM 11B_CC11_HCl, 5 μM 11B_CC16_HCl, 5 μM pazopanib or 2.5 mg/ml avastin was injected intravitreally on P13. The mice were culled on P17, eyes fixed in 4% paraformaldehyde at 4° C. overnight, flat mounted and retinas stained for isolectin (red, stains vasculature).

SMILES: C/C(=C\c1ccccc1O)c1ccc2ccccc2n1.Cl [Compound 11B_CC11_HCl, (E)-2-(2-Quinolin-2-yl-propenyl)-phenol HCl salt]
- inhibition at 30 µM (CysLT1 receptor): 137%
- inhibition at 30 µM (CysLT2 receptor): 41%
- inhibition of neovascularisation (avascular region as percentage of whole retina) (retinal blood vessels): inhibit neovascularisation
